Reference: patent publication US20130252813A1, “Herbicidal Compositions for Tolerant or Resistant Sugar Beet Crops” (Bayer CropScience AG, priority 1998, published 2013)

How the values were obtained:
Assay type in all cases: in vivo
Avena fatua = experiment: Herbicidal action and selectivity in sugar beet crop (field trial, Table 5); details: application in the 3-5-leaf stage, scoring 4 weeks after application
Description: (§1) Transgenic sugar beet plants with resistance to one or more herbicides (A) were grown together with typical weed plants in the open in 2×5 m plots under natural field conditions; alternatively, the weed population established naturally while the sugar beet plants grew. Treatment with the compositions according to the invention and, for control purposes, with separate application of the active ingredients of the components alone, was carried out under standard conditions with a plot sprayer at an application rate of 200-300 liters of water per hectare in parallel trials in accordance with the scheme of Table 1, i.e. pre-sowing/pre-emergence, […] or post-emergence at the early, medium or late stage.
(§2) At 2, 4, 6 and 8 week intervals after application, the herbicidal activity of the active ingredients or active ingredient mixtures were scored visually by comparing the treated plots with untreated control plots. Damage and development of all aerial plant organs was recorded. The scoring was done using a percentage scale (100% activity=all plants dead; 50% activity=50% of the plants and green plant organs dead; 0% activity=no discernible effect=like control plot). The score values of in each case 4 plots were averaged.

transgenic sugar beet [1] = experiment: Damage to transgenic sugar beet (field trial, Table 5); details: application in the 3-5-leaf stage
Description: as §1, §2

Galium aparine [2] = experiment: Herbicidal action (field trial, Table 7); details: application in the 4-5-leaf stage, scoring 26 days after application
Description: as §1, §2

transgenic sugar beet [3] = experiment: Damage to transgenic sugar beet - field trial (Table 2); details: application in 2-4-leaf stage
Description: as §1, §2

Setaria viridis [4] = experiment: Herbicidal action in sugar beet - field trial (Table 2); details: application in 2-4-leaf stage, scoring 3 weeks after application
Description: as §1
(§3) […] Damage and development of all aerial plant organs was recorded. The scoring was done using a percentage scale (100% activity=all plants dead; 50% activity=50% of the plants and green plant organs dead; 0% activity=no discernible effect=like control plot). The score values of in each case 4 plots were averaged.

Amaranthus retroflexus = experiment: Herbicidal action (field trial, sequential treatment, Table 8); details: dose 3500 g A.S./ha pre-emergence; scorings 22 days after application
Description: as §1, §3

Setaria viridis [5] = experiment: as above; details: dose 3500 g A.S./ha pre-emergence; scorings 22 days after application
Description: as §1, §3

Galium aparine [6] = experiment: Herbicidal action in sugar beet crop (greenhouse experiment, Table 3); details: application in the 4-5-leaf stage, scoring 3 weeks after application
From the text: Seeds or rhizomes of monocotyledonous and dicotyledonous weeds are placed in sandy loam soil in cardboard pots, covered with soil and grown in the greenhouse under good growth conditions. […] The compositions according to the
Invention, which are formulated as wettable powders or as emulsion concentrates, are sprayed at various dosages onto the green plant organs at an application rate of 600 to 800 l of water per ha (converted). After the experimental plants have remained in the greenhouse for approx. 3 to 4 weeks under optimal growth conditions, the effect of the preparations is scored visually in comparison with untreated controls. The compositions according to the invention also have a good herbicidal activity against a broad spectrum of economically Important grass weeds and broad-leaved weeds when applied post-emergence.

transgenic sugar beet [7] = experiment: Damage to transgenic sugar beet (greenhouse experiment, Table 3); design: scale not given here; details: greenhouse Table 3, application in the 4-5-leaf stage
Echinochloa crus-galli = experiment: Herbicidal action and selectivity in sugar beet crop (field trial, Table 4); details: application in 3-leaf stage, scoring 4 weeks after application
Description: as §1, §2

transgenic sugar beet [8] = experiment: Damage to transgenic sugar beet (field trial, Table 4); details: application in 3-leaf stage
Description: as §1, §2

SMILES: CCOC(=O)C(C)Oc1ccc(Oc2nc3ccc(Cl)cc3o2)cc1 (racemic) [(B3.2), fenoxaprop-ethyl (rac.)]
- Herbicidal action in % against Avena fatua (Avena fatua; dose 15 g A.S./ha): 20%
- Herbicidal action in % against Avena fatua (Avena fatua; dose 30 g A.S./ha): 60%
- Herbicidal action in % against Avena fatua (Avena fatua; dose 60 g A.S./ha): 85%
- Damage to transgenic sugar beet (transgenic sugar beet [1]; dose 15 g A.S./ha): 0
- Damage to transgenic sugar beet (transgenic sugar beet [1]; dose 30 g A.S./ha): 0
- Damage to transgenic sugar beet (transgenic sugar beet [1]; dose 60 g A.S./ha): 0

SMILES: CC(C)N.O=C(O)CNCP(=O)(O)O [(A2.2), monoisopropylammonlum salt of glyphosate]
- Herbicidal action in % against Galium aparine (Galium aparine [2]; dose 125 g A.S./ha): 10%
- Herbicidal action in % against Galium aparine (Galium aparine [2]; dose 250 g A.S./ha): 40%
- Herbicidal action in % against Galium aparine (Galium aparine [2]; dose 500 g A.S./ha): 60%
- Herbicidal action in % against Galium aparine (Galium aparine [2]; dose 1000 g A.S./ha): 85%

SMILES: Cc1cccc(S(=O)(=O)NC(=O)Nc2nc(OCC(F)(F)F)nc(N(C)C)n2)c1C(=O)O [(B1.3)]
- Damage to transgenic sugar beet (transgenic sugar beet [3]; dose 8 g A.S./ha): 0
- Damage to transgenic sugar beet (transgenic sugar beet [3]; dose 17 g A.S./ha): 0
- Herbicidal action in % against Setaria viridis (Setaria viridis [4]; dose 8 g A.S./ha): 0%
- Herbicidal action in % against Setaria viridis (Setaria viridis [4]; dose 17 g A.S./ha): 20%

SMILES: Cc1nnc(-c2ccccc2)c(=O)n1N [(B1.4), 4-amino-4,5-dihydro-3-methyl-6-phenyl-1,2,4-triazin-5-one]
- Herbicidal action in % against Amaranthus retroflexus (Amaranthus retroflexus): 73%
- Herbicidal action in % against Setaria viridis (Setaria viridis [5]): 20%
- Herbicidal action in % against Galium aparine (Galium aparine [6]; dose 750 g A.S./ha): 5%
- Herbicidal action in % against Galium aparine (Galium aparine [6]; dose 1500 g A.S./ha): 5%
- Herbicidal action in % against Galium aparine (Galium aparine [6]; dose 3000 g A.S./ha): 5%
- Damage to transgenic sugar beet (transgenic sugar beet [7]; dose 750 g A.S./ha): 0
- Damage to transgenic sugar beet (transgenic sugar beet [7]; dose 1500 g A.S./ha): 0
- Damage to transgenic sugar beet (transgenic sugar beet [7]; dose 3000 g A.S./ha): 0

SMILES: COC(=O)Nc1cccc(NC(=O)Oc2cccc(C)c2)c1 [(B2.2), 3-methylphenyl N-[3-(methoxycarbonylamino)phenyl]carbamate]
- Herbicidal action in % against Galium aparine (Galium aparine [6]; dose 500 g A.S./ha): 20%
- Herbicidal action in % against Galium aparine (Galium aparine [6]; dose 1000 g A.S./ha): 30%
- Herbicidal action in % against Galium aparine (Galium aparine [6]; dose 2000 g A.S./ha): 30%
- Damage to transgenic sugar beet (transgenic sugar beet [7]; dose 500 g A.S./ha): 0
- Damage to transgenic sugar beet (transgenic sugar beet [7]; dose 1000 g A.S./ha): 0
- Damage to transgenic sugar beet (transgenic sugar beet [7]; dose 2000 g A.S./ha): 0
- Herbicidal action in % against Galium aparine (Galium aparine [2]; dose 500 g A.S./ha): 20%
- Herbicidal action in % against Galium aparine (Galium aparine [2]; dose 1000 g A.S./ha): 30%
- Herbicidal action in % against Galium aparine (Galium aparine [2]; dose 2000 g A.S./ha): 30%

SMILES: O=C(O)c1nc(Cl)ccc1Cl [(B2.4), 3,6-dichloropyridine-2-carboxylic acid]
- Herbicidal action in % against Galium aparine (Galium aparine [6]; dose 50 g A.S./ha): 5%
- Herbicidal action in % against Galium aparine (Galium aparine [6]; dose 100 g A.S./ha): 35%
- Herbicidal action in % against Galium aparine (Galium aparine [6]; dose 200 g A.S./ha): 45%
- Damage to transgenic sugar beet (transgenic sugar beet [7]; dose 50 g A.S./ha): 0
- Damage to transgenic sugar beet (transgenic sugar beet [7]; dose 100 g A.S./ha): 0
- Damage to transgenic sugar beet (transgenic sugar beet [7]; dose 200 g A.S./ha): 0

SMILES: CCC/C(=N\OCC)C1=C(O)CC(CC(C)SCC)CC1=O (stereo not shown) [(B4.1), (E,Z)-2-(1-ethoxyimino-butyl)-5-[2-(ethylthio)propyl]-3-hydroxycyclohex-2-enone]
- Herbicidal action in % against Echinochloa crus-galli (Echinochloa crus-galli; dose 105 g A.S./ha): 35%
- Herbicidal action in % against Echinochloa crus-galli (Echinochloa crus-galli; dose 210 g A.S./ha): 73%
- Herbicidal action in % against Echinochloa crus-galli (Echinochloa crus-galli; dose 315 g A.S./ha): 85%
- Damage to transgenic sugar beet (transgenic sugar beet [8]; dose 105 g A.S./ha): 0
- Damage to transgenic sugar beet (transgenic sugar beet [8]; dose 210 g A.S./ha): 0
- Damage to transgenic sugar beet (transgenic sugar beet [8]; dose 315 g A.S./ha): 0

SMILES: CCCC(=NOCC)C1=C(O)CC(C2CCCSC2)CC1=O (stereo not shown) [(B4.2), 2-(1-ethoxyiminobutyl)-3-hydroxy-5-thian-3-ylcyclohex-2-enone]
- Herbicidal action in % against Echinochloa crus-galli (Echinochloa crus-galli; dose 62.5 g A.S./ha): 45%
- Herbicidal action in % against Echinochloa crus-galli (Echinochloa crus-galli; dose 125 g A.S./ha): 70%
- Herbicidal action in % against Echinochloa crus-galli (Echinochloa crus-galli; dose 250 g A.S./ha): 93%
- Damage to transgenic sugar beet (transgenic sugar beet [8]; dose 62.5 g A.S./ha): 0
- Damage to transgenic sugar beet (transgenic sugar beet [8]; dose 125 g A.S./ha): 0
- Damage to transgenic sugar beet (transgenic sugar beet [8]; dose 250 g A.S./ha): 0
